In publication PMC5983288, “The Maxi-K (BK) Channel Antagonist Penitrem A as a Novel Breast Cancer-Targeted Therapeutic” (Marine Drugs, 2018):

How the values were obtained:
BT-474 cells = test: cells; assay type: cell-based, human
Description: Penitrems were dissolved in dimethyl sulfoxide (DMSO) to provide a final 25 mM stock solution. Proper media were used to prepare penitrems at their final tested doses for each assay. […] The effects of penitrems 1–3 on the proliferation and growth of multiple BC cell lines were evaluated using MTT assay. […] The next day, cells were washed with PBS, divided into different treatment groups, and then given various concentrations of tested penitrems in 0.5% FBS containing media. Viable cell number was calculated after 48 h using the MTT assay.
(§1) Similarly, the non-tumorigenic mammary epithelial MCF-12A cells were plated in DMEM/F12 supplemented with 5% horse serum, […], 20 ng/mL EGF, 100 U/mL penicillin, 0.1 mg/mL streptomycin, and […]. Next day, cells were divided into different groups and fed serum-free DMEM media supplemented with experimental treatments or vehicle-treated control media. Viable cell number was determined using the MTT colorimetric assay. The absorbance was measured at λ570 nm on a BioTek Synergy2 microplate reader (BioTek, Winooski, VT, USA). The number of cells per well was calculated against a standard curve prepared at the start of the experiment. The IC50 value for each tested sample was calculated by non-linear regression of log concentration versus the % survival, implemented in GraphPad® PRISM version 5.0 (Graph Pad Software, Inc., La Jolla, CA, USA).

[1] = test system: human neuronal Schwann cells CRL-2765; test: MTT cell viability assay, Schwann CRL-2765; assay type: cell-based; conditions: CRL-2765, MTT, 48 h
Description: (§2) Penitrems were dissolved in dimethyl sulfoxide (DMSO) to provide a final 25 mM stock solution. Proper media were used to prepare penitrems at their final tested doses for each assay. […] The effects of penitrems 1–3 on the proliferation and growth of multiple BC cell lines were evaluated using MTT assay. MDA-MB-231, BT-474, and SK-BR-3 BC cells (ATCC, Manassas, VA, USA) were initially seeded at 1 × 10^4 cells/well (6 replicates/group) in 96-well plates in RPMI-1640 media containing 10% FBS, and allowed to attach overnight. The next day, cells were washed with PBS, divided into different treatment groups, and then given various concentrations of tested penitrems in 0.5% FBS containing media. Viable cell number was calculated after 48 h using the MTT assay.
as §1, with “To evaluate the effect of penitrems on growth of the human neuronal Schwann CRL 2765 (ATCC, Manassas, VA, USA), cells were plated at a density of 1 × 10^4 cell per well (6-wells/group) in 96-well culture plates using the ATCC-recommended media (Dulbecco’s Modified Eagle’s Medium, DMEM) and allowed to adhere overnight for growth studies, after which each treatment was added, and cells were maintained for 48 h. Similarly,” for “Similarly,”

[2] = test system: BK channel subunits α-1 (KCNMA1); test: Western blot, BK channel expression in BC cells; assay type: cell-based, human; conditions: MDA-MB-231, BT-474, SK-BR-3; 10 µM treatments; vs control
Description: (§3) MDA-MB-231, BT-474, SK-BR-3, Schwann CRL-2765, and MCF-12A cells, were plated at a density of 1 × 10^6 cells/100 mm culture plates. MDA-MB-231, BT-474, and SK-BR-3 were plated in RPMI-1640 media supplemented with 10% FBS, Schwann cells CRL-2765 were plated in DMEM media supplemented with 10% FBS [11], and MCF-12A cells were plated in DMEM/F12 supplemented with ingredients described earlier. Cells were allowed to adhere overnight, then washed twice with PBS, and starved in control or treatment in serum-free medium containing 0.5% FBS for 48 h to synchronize the cells in G1 phase. Afterwards, cells were treated with tested penitrems in serum-free defined media for 24 h. At the end of treatment periods, cells were lysed in RIPA buffer (Qiagen Sciences Inc., Valencia, CA, USA). Protein concentration was determined by the BCA assay (Bio-Rad, Hercules, CA, USA). Equivalent amounts of protein (50 µg) were electrophoresed on SDS-polyacrylamide gels. The gels were then electroblotted onto PVDF membranes. These PVDF membranes were then blocked with 2% BSA in 10 mM Tris-HCl containing 50 mM NaCl and 0.1% Tween 20, pH 7.4 (TBST), and then incubated with specific primary antibodies overnight at 4 °C. […] Western blot quantification analysis was done using Image Lab ^TM Software (Bio-Rad, Hercules, CA, USA) for total protein normalization.

SK-BR-3 cells = test: MTT cell viability assay, SK-BR-3; assay type: cell-based, human; conditions: SK-BR-3, MTT, 48 h
Description: as §2
as §1, with “To evaluate the effect of penitrems on growth of the human neuronal Schwann CRL 2765 (ATCC, Manassas, VA, USA), cells were plated at a density of 1 × 10^4 cell per well (6-wells/group) in 96-well culture plates using the ATCC-recommended media (Dulbecco’s Modified Eagle’s Medium, DMEM) and allowed to adhere overnight for growth studies, after which each treatment was added, and cells were maintained for 48 h. Similarly,” for “Similarly,”

TNF-α = test: Western blot, TNF-α levels in BC cells; assay type: cell-based, human; conditions: MDA-MB-231, BT-474, SK-BR-3; 10 µM treatments; vs control
Description: as §3

MDA-MB-231 cells = test: MTT cell viability assay, MDA-MB-231; assay type: cell-based, human; conditions: MDA-MB-231, MTT, 48 h
Description: as §2
as §1, with “To evaluate the effect of penitrems on growth of the human neuronal Schwann CRL 2765 (ATCC, Manassas, VA, USA), cells were plated at a density of 1 × 10^4 cell per well (6-wells/group) in 96-well culture plates using the ATCC-recommended media (Dulbecco’s Modified Eagle’s Medium, DMEM) and allowed to adhere overnight for growth studies, after which each treatment was added, and cells were maintained for 48 h. Similarly,” for “Similarly,”

[3] = test system: MCF-12A cells (non-tumorigenic human mammary epithelial cells); test: MTT cell viability assay, MCF-12A; assay type: cell-based; conditions: 48 h
Description: as §2
as §1, with “To evaluate the effect of penitrems on growth of the human neuronal Schwann CRL 2765 (ATCC, Manassas, VA, USA), cells were plated at a density of 1 × 10^4 cell per well (6-wells/group) in 96-well culture plates using the ATCC-recommended media (Dulbecco’s Modified Eagle’s Medium, DMEM) and allowed to adhere overnight for growth studies, after which each treatment was added, and cells were maintained for 48 h. Similarly,” for “Similarly,”

BK channels = test system: BK channels; design: method as in PMID 27834847, PMID 14593856; conditions: cited from earlier work
[4] = test system: BK channel subunits α-1 (KCNMA1); test: Immunocytochemical fluorescence staining of KCNMA1; assay type: cell-based, human; conditions: MDA-MB-231 (9.8 µM) and BT-474 (10.3 µM), 24 h, vs vehicle-treated controls
Description: Immunocytochemical fluorescent studies were conducted by growing MDA-MB-231 and BT-474 cells mammary cancer cells on 8-chamber culture slides (Becton Dickinson and Company, Franklin Lakes, NJ, USA) at a density of 2 × 10^4 cells/chamber (2 replicates/group), and allowed to attach overnight in complete serum media supplemented with 10% FBS. […] At the end of experiment, cells were washed with pre-cooled PBS, and fixed with acetone, pre-cooled to −20 °C, for 2 min. Fixed cells were then washed with PBS, and blocked with 2% BSA in 10 mM Tris-HCl containing 50 mM NaCl and 0.1% Tween 20, pH 7.4 (TBST) for 1 h at rt. Cells were then incubated with specific primary antibody for BK channel KCNMA1 (1:300) overnight at 4 °C in 2% BSA-TBST. At the end of incubation time, cells were washed five times with pre-cooled PBS, followed by incubation with Alexa-Fluor 594-conjugated secondary antibody (1:5000) in 2% BSA-TBST for 1 h at rt. After final washing for five times with PBS, cells were embedded in Vectashield Mounting Medium with DAPI (Vector Laboratories Inc., Burlingame, CA, USA). Fluorescent images were obtained by using a confocal laser scanning microscope (Carl Zeiss Microimaging Inc., Thornwood, NY, USA). The red color indicates the positive fluorescence staining for BK channel KCNMA1, and the blue color represents MDA-MB-231 cell nuclei counter-stained with DAPI [30]. […]

[5] = Homo sapiens, BT-474, MTT, 48 h

Molecule | IC50 (BT-474 cells; Homo sapiens, BT-474, single agent) | IC50 ([1]; Homo sapiens) | total levels of BK channel subunits α-1 (KCNMA1) [2] | IC50 (BT-474 cells; [5]) | IC50 (SK-BR-3 cells; Homo sapiens) | total levels of TNF-α (TNF-α) | IC50 (MDA-MB-231 cells; Homo sapiens) | IC50 ([3]; Homo sapiens) | IC50 [1] | BK channels antagonism (BK channels) | IC50 (BT-474 cells; BT-474, MTT, 48 h) | IC50 (SK-BR-3 cells) | total levels of KCNMA1 (immunofluorescence) [4] | IC50 (MDA-MB-231 cells) | IC50 [3]
CS(=O)(=O)CCNCc1ccc(-c2ccc3ncnc(Nc4ccc(OCc5cccc(F)c5)c(Cl)c4)c3c2)o1 [LP, lapatinib, reference compound] | 0.123 µM | – | – | – | – | – | – | – | – | – | – | – | – | – | –
C=C(C)[C@H]1O[C@H]2CC[C@@]3(C)[C@@](O)(CC[C@H]4[C@@H]5OC(C)(C)[C@H]6C[C@@H]7C(=C)Cc8ccc9[nH]c(c5c9c8[C@@]76O)[C@@]43C)[C@]23O[C@@H]3[C@H]1O [Compound 2, Penitrem E] | – | 67.8 µM | did not cause changes | 31.8 µM | 36.7 µM | increased total levels of TNF-α in both BT-474 and SK-BR-3 cells | 20.3 µM | 44 µM | – | – | – | – | – | – | –
C=C(C)C1OC2CCC3(C)C4(C)c5[nH]c6cc(Cl)c7c8c6c5C(OC(C)(C)C5CC(C(=C)C7)C85O)C4CCC3(O)C23OC3C1OC (stereo not shown) [Compound 3, 25-O-methylpenitrem A] | – | 48.2 µM | – | 22.4 µM | 27.1 µM | – | 37.8 µM | 78.8 µM | – | – | – | – | – | – | –
Penitrem A [Compound 1] | – | – | greatest reduction | – | – | increased total levels of TNF-α | – | – | 22.6 µM | potent BK channels antagonist at very low molar concentration | 10.3 µM | 15.1 µM | remarkable reduction | 9.8 µM | 33.7 µM
